Tested on: anti-CD19 CAR-expressing T cells
Test: T cell proliferation during acute stimulation with plate-bound anti-CAR anti-idiotypic antibody (Incucyte confluence)
Assay type: cell-based, human
Conditions: 30 μg/mL plate-bound anti-idiotypic antibody, seven days, compound present during stimulation
Experimental: T cell proliferation during stimulation with 30 μg/mL of plate-bound anti-CAR anti-idiotypic antibody in the presence of Compound 17 was monitored for seven days using an Incucyte imaging system. Cell proliferation was monitored by analyzing the occupied area (% confluence) of cell images over time; as cells proliferate, the confluence increases.
Triplicate values for cell compositions manufactured from the two different healthy donors are shown.

## CC[C@H]1CN([C@@H](CC)c2ccc(C(F)(F)F)cc2)[C@H](CC)CN1c1nc(=O)n(C)c2ccc(C#N)nc12 [Compound 17, 4-((2S,5R)-2,5-diethyl-4-((S)-1-(4-(trifluoromethyl)phenyl)propyl)piperazin-1-yl)-1-methyl-2-oxo-1,2-dihydropyrido[3,2-d]pyrimidine-6-carbonitrile]
  T cell proliferation (% confluence): did not affect T cell proliferation

Source: patent US20240108654A1, “COMBINATION OF A T CELL THERAPY AND A DGK INHIBITOR” (Juno Therapeutics, Inc., priority 2021, published 2024)
